Data set [1] deals with OC[C@H]1O[C@@](CO)(O[C@H]2O[C@H](CO)[C@@H](O)[C@H](O)[C@H]2O)[C@@H](O)[C@@H]1O. The data set can be described thus: Kinetic parameters towards sucrose donor, double mutant A289P-F290L. Format: biochemical, Neisseria polysaccharea. Conditions: other: sucrose donor (0-500 mM), Eadie-Hofstee plot, 30° C., pH 7.0. The method, then:
(§1) The double mutants A289P-F290C, A289P-F290I and A289P-F290L were produced and purified, as previously described in Example 1-1. The protein content was determined by the Nanodrop ND-1000 spectrophotometer. These mutants were tested on sucrose alone or supplemented with α-D-GlcpNAc-OAll acceptor, and compared to wtAS and F290K. Assays were performed at 30° C. in 50 mM Tris-HCl buffer, pH=7.0.
(§2) Enzyme assays were carried out in a total volume of 2 mL containing pure enzyme (0.073 mg, 0.153 mg and 0.092 mg when using A289P-F290C, A289P-F2901 and A289P-F290L, respectively).
(§3) Kinetic studies of AS variants were performed in the presence of sucrose (0-500 mM). At regular time intervals (2-5 min), aliquots (200 μL) were removed, heated (95° C., 2 min) and centrifuged (18000 g, 5 min) All the samples were filtered on a 0.22 μm membrane and analyzed using HPLC material previously described. The initial rate of sucrose consumed, corresponding to the initial rate of fructose released, was expressed in mole of fructose released per minute and per gram of enzyme. The kinetic parameters kcat and Km were calculated using Eadie-Hofstee plot.

In data set [2] the test system is Neisseria polysaccharea amylosucrase 1G5A, wild type (wtAS, ASNPwt), SEQ ID NO: 13. Particulars: sucrose donor, data from ref. 83; cited from earlier work.
The target of data set [3] is Neisseria polysaccharea amylosucrase 1G5A (parent SEQ ID NO: 13) variant A289P-F290L (Neisseria polysaccharea, UniProt Q9ZEU2, A297P/F298L/G545D). Kind of data set: Kinetic parameters towards sucrose donor, double mutant A289P-F290L. Particulars: sucrose donor (0-500 mM); Eadie-Hofstee plot; 30° C., pH 7.0. The format is biochemical. The method, then: as §1, §2, §3
Data set [4] deals with Neisseria polysaccharea amylosucrase 1G5A (parent SEQ ID NO: 13) variant F290K (Neisseria polysaccharea, UniProt Q9ZEU2, F298K/G545D). Kind of data set: Kinetic parameters towards sucrose donor, variant F290K. The format is biochemical. Conditions: F290K could not be saturated with sucrose. The method, then:
Production and purification of AS variants were performed as previously described (ref. 45). […] The enzymes were desalted by size exclusion chromatography using P6DG columns (GE Healthcare Biosciences) at +4° C. and stored in elution buffer (50 mM Tris-HCl, pH 7.0, 150 mM NaCl) at −80° C. The protein content was determined by micro-Bradford method, using bovine serum albumin as standard (ref. 56).
All assays were performed at 30° C. in 50 mM Tris buffer, pH=7.0. For the acceptor reactions, F290D, F290K and ASNPwt (1G5A) were tested on α-D-GlcpNAc-OAll.
Enzyme assays were carried out in a total volume of 2 mL containing pure enzyme (0.115 mg and 0.106 mg when using ASNPwt and F290K, respectively). Catalytic efficiency (Eff=kcat/KM) of ASNPwt and F290K variant was determined with both sucrose (D=Donor) and α-D-GlcpNAc-OAll (A=Acceptor) as variable substrates. […] For each experiment, the reaction velocity corresponding to the acceptor glucosylation was determined by the formation of α-D-Glcp-(1→4)-α-D-GlcpNAc-OAll (called Vi(Dp2)), corresponding to the kinetics of the reaction of interest.
Initial velocities were fitted to the Michaelis-Menten equation using Sigma-Plot. As saturation was not achieved with the mutant, efficiency was calculated by linear regression analysis of the velocity versus substrate concentration plot. […]

The target in data set [5] is Neisseria polysaccharea amylosucrase 1G5A (parent SEQ ID NO: 13) variant A289P-F290C (Neisseria polysaccharea, UniProt Q9ZEU2, A297P/F298C/G545D). Kind of data set: Kinetic parameters towards sucrose donor, double mutant A289P-F290C. Particulars: sucrose donor (0-500 mM); Eadie-Hofstee plot; 30° C., pH 7.0. The format is biochemical. The method, then:
as §1, §2, §3

Data set [6] concerns the target Neisseria polysaccharea amylosucrase 1G5A (parent SEQ ID NO: 13) variant A289P-F290I (Neisseria polysaccharea, UniProt Q9ZEU2, A297P/F298I/G545D). The data set can be described thus: Kinetic parameters towards sucrose donor, double mutant A289P-F290I. The format is biochemical. Particulars: sucrose donor (0-500 mM); Eadie-Hofstee plot; 30° C., pH 7.0. As for the experimental part: as §1, §2, §3

For data set [7], the system named is OC[C@H]1O[C@@](CO)(O[C@H]2O[C@H](CO)[C@@H](O)[C@H](O)[C@H]2O)[C@@H](O)[C@@H]1O. Described as above. Format: biochemical, Neisseria polysaccharea. Conditions: other: sucrose donor (0-500 mM), Eadie-Hofstee plot, 30° C., pH 7.0. As for the experimental part: as §1, §2, §3

As to “Neisseria polysaccharea amylosucrase 1G5A (parent SEQ ID NO: 13) variant A289P-F290L (Neisseria polysaccharea; A297P/F298L/G545D)”, the Michaelis-Menten constant (Km) in data set [1] is recorded as 10.1 mM.

For the compound `OC[C@H]1O[C@@](CO)(O[C@H]2O[C@H](CO)[C@@H](O)[C@H](O)[C@H]2O)[C@@H](O)[C@@H]1O` [sucrose], the Michaelis-Menten constant (Km) in data set [2] was 50.2 mM. Also, the catalytic constant (kcat) in data set [2] is 1.3 s⁻¹; in data set [3], 2.1 s⁻¹; in data set [5] it was 2.8 s⁻¹; in data set [6], 1.1 s⁻¹. The affinity for sucrose entry in data set [4] is “poor affinity for sucrose”.

Turning to “Neisseria polysaccharea amylosucrase 1G5A (parent SEQ ID NO: 13) variant A289P-F290I (Neisseria polysaccharea; A297P/F298I/G545D)”, the Km in data set [7] turned out to be 17.2 mM.

Broadly, the Km is the concentration of substrate that gives half-maximal velocity. As a reminder, the kcat is the number of substrate molecules converted per active site and unit of time at saturation.

The values above are taken from US20110086767A1, “MUTANTS OF GLYCOSIDE HYDROLASES AND USES THEREOF FOR SYNTHESIZING COMPLEX OLIGOSACCHARIDES AND DISACCHARIDE INTERMEDIATES” (Institut Pasteur, priority 2008, published 2011).
